Results from patent US6479435B1, “Diaryl ethers and processes for their preparation and herbicidal and desiccant compositions containing them” (ISK Americas Incorporated, priority 1997, dated 2002).

Experiments:
Format in all cases: in vivo
[1] = test system: lambsquarters (Chenopodium album, CHEAL); test: Pre-emerge greenhouse herbicide test, phytotoxicity rating; conditions: Chenopodium album, pre-emergence, 336 h, 14 days after application, rating scale 0-100; for pest or weed control at 125 g/ha: Rate 125 g al/ha; for pest or weed control at 500 g/ha: Rate 500 g al/ha
Summary of the method: (§1)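 Visual 0–100 injury rating (100 = all plants dead) taken 14 days after treatment. Rates of 125–1000 g ai/ha in acetone, 187 l/ha, were sprayed onto soil one day post-sowing; pots were surface-watered to incorporate, then bottom-watered.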

[2] = test system: large crabgrass (Digitaria sanguinalis, DIGSA); test: as above; conditions: Digitaria sanguinalis, pre-emergence, 336 h, 14 days after application, rating scale 0-100; for pest or weed control at 125 g/ha: Rate 125 g al/ha; for pest or weed control at 500 g/ha: Rate 500 g al/ha
Summary of the method: as §1

[3] = test system: velvetleaf (Abutilon theophrasti, ABUTH); test: as above; conditions: Abutilon theophrasti, pre-emergence, 336 h, 14 days after application, rating scale 0-100; for pest or weed control at 125 g/ha: Rate 125 g al/ha; for pest or weed control at 500 g/ha: Rate 500 g al/ha
Summary of the method: as §1

Grass Weeds = test: Post-emergent application in combination with other herbicides, percent control of grass weeds; conditions: 31.25 g ai/ha
Method: All test compounds were dissolved in acetone and applied to the test units in a volume of 187 l/ha. Test materials were applied at rates ranging from 125 g ai/ha to 1000 g ai/ha using a track sprayer equipped with a TJ8001E even flow flat fan spray nozzle. Plants were arranged on a shelf so that the top of the canopy (post-emerge) or top of the soil surface (pre-emerge) was 40-45 cm below the nozzle. Pressurized air was used to force the test solution through the nozzle as it was mechanically advanced (via electrically driven chain drive) over the top of all test plants/pots. This application simulates a typical commercial field herbicide application. In the post-emerge test, a commercial non-ionic surfactant was also included (0.25% v/v) to enhance wetting of the leaf surfaces Qf target plants at rates ranging from 63 g ai/ha to 1000 g ai/ha. For post-emerge tests, seeds were planted 8-21 days prior to the test to allow emergence and good foliage development prior to application of the test substances. At the time of the post-emerge application, plants of all species were usually at the 2-3 leaf stage of development. Post-emerge test units were always bottom-watered. At 14 days after application of the test materials, phytotoxicity ratings were recorded. A rating scale of 0-100 was used as previously described in Research Methods in Weed Science, 2nd edition, B. Truelove, Ed., Southern Weed Science Society, Auburn University, Auburn, Ala., 1977. Briefly, “0” corresponds to no damage and “100” corresponds to complete death of all plants in the test unit. This scale was used both to determine efficacy against weed species and damage to crop species. Herbicide activity data for various compounds of this invention, which are shown by compound number in Tables 1-9, are shown in Tables 13 and 14. […] (Note: Weed species abbreviations are from the Composite List of Weeds published by the Weed Science Society of America, 1989.) The following examples illustrate the utility of combinations of compounds of this invention and existing herbicides. The methods used are identical to those for the application of single compounds except the commercial formulations of existing herbicides were added to the spray mixture in the appropriate amounts before spraying. Combination Example 3. Post-emergent Application of Compound 9-1 with Nicosulfuron Combination Example 4. Postemergent Application of Compound 9-1 with Pyridate

[4] = test system: common ragweed (Ambrosia artemisiifolia L., AMBEL); test: Pre-emerge greenhouse herbicide test, phytotoxicity rating; conditions: 14 days after application, rating scale 0-100
Summary of the method: as §1

[5] = test system: common ragweed (Ambrosia artemisiifolia L., AMBEL); test: Post-emerge greenhouse herbicide test, phytotoxicity rating; conditions: 14 days after application, scale 0-100
Summary of the method: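 Scores use a 0 (no damage) to 100 (complete kill) scale, taken 14 days after a foliar spray. Acetone solutions with 0.25% v/v non-ionic surfactant were applied by track sprayer at 187 l/ha and 63-1000 g ai/ha to bottom-watered 2-3 leaf plants.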

Compound	pest or weed control at 125 g/ha [1] [%]	pest or weed control at 500 g/ha [1] [%]	pest or weed control at 125 g/ha [2] [%]	pest or weed control at 500 g/ha [2] [%]	pest or weed control at 125 g/ha [3] [%]	pest or weed control at 500 g/ha [3] [%]	Percent Control of Grass Weeds DIGSA (Grass Weeds) [%]	Percent Control of Grass Weeds DIGSA (Grass Weeds; Combination Example 4) [%]	Percent Control of Grass Weeds ECHCG (Grass Weeds) [%]	Percent Control of Grass Weeds ECHCG (Grass Weeds; Combination Example 4) [%]	Percent Control of Grass Weeds SETVI (Grass Weeds) [%]	Percent Control of Grass Weeds SETVI (Grass Weeds; Combination Example 4) [%]	Percent Control of Grass Weeds SORHA (Grass Weeds) [%]	Percent Control of Grass Weeds SORHA (Grass Weeds; Combination Example 4) [%]	AMBEL phytotoxicity rating ([4]; Rate 125 g al/ha)	AMBEL phytotoxicity rating ([4]; Rate 500 g al/ha)	phytotoxicity rating AMBEL ([5]; rate 63 g ai/ha)	phytotoxicity rating AMBEL ([5]; rate 500 g ai/ha)
Nn1c(C(F)(F)F)cc(=O)n(-c2cc(Oc3ncccc3[N+](=O)[O-])c(Cl)cc2F)c1=O [Compound 9-1, 1-amino-3-[4-chloro-2-fluoro-5-(3-nitro-2-pyridyloxy)phenyl]-6-trifluoromethyl-1,2,3,4-tetrahydropyrimidine-2,4-dione]	100	100	40	100	100	100	10	10	0	0	10	10	10	10	–	–	–	–
O=c1n(-c2cc(Oc3ncccc3C(F)(F)F)c(Cl)cc2F)c(=S)n2n1CCCC2 [Compound 8-18, 2-[4-chloro-2-fluoro-5-(3-trifluoromethyl-2pyridyloxy)phenyl]hexahydro-3-thioxo-1H-[1,2,4]triazolo[1,2-a]pyridazin-1-one]	100	100	50	100	100	100	–	–	–	–	–	–	–	–	100	95	95	60
O=c1n(-c2cc(Oc3ncccn3)c(Cl)cc2F)c(=S)n2n1CCCC2 [Compound 8-29, 2-[4-chloro-2-fluoro-5-(2-pyrimidyloxy)phenyl]hexahydro-3-thioxo-1H-[1,2,4]triazolo[1,2-a]pyridazin-1-one]	100	100	100	100	100	100	–	–	–	–	–	–	–	–	100	100	90	100
Nn1c(C(F)(F)F)cc(=O)n(-c2cc(Oc3ccccc3C(F)(F)F)c(Cl)cc2F)c1=O [Compound 9-24, 1-amino-3-[4-chloro-2-fluoro-5-(2-trifluoromethylphenoxy)phenyl]-6-trifluoromethyl-1,2,3,4-tetrahydropyrimidine-2,4-dione]	100	100	90	100	99	100	–	–	–	–	–	–	–	–	–	–	–	–
